Here are results for 60 compounds from patent US8071581B2, “Triazolopyridazine protein kinase modulators” (SGX Pharmaceuticals, Inc., priority 2006, dated 2011).

One test relates to GTL16. The test can be described thus: GTL16 cell assay (EC50). Format: cell-based. The following applies: Homo sapiens, GTL 16; Table 1. The procedure:
Compounds were tested in the following assays in duplicate. 96-well XTT assay: Cells were grown in growth media containing various concentrations of compounds (duplicates) on a 96-well flat bottom plate for 72 hours at 37° C. in 5% CO2. The starting cell number was 5000 cells per well and volume was 120 μl. At the end of the 72-hour incubation, 40 μl of XTT labeling mixture (50:1 solution of sodium 3′-[1-(phenylaminocarbonyl)-3,4-tetrazolium]-bis(4-methoxy-6-nitro) benzene sulfonic acid hydrate and Electron-coupling reagent: PMS (N-methyl dibenzopyrazine methyl sulfate) were added to each well of the plate. After an additional 2-6 hours […] with a spectrophotometer.

Test [1] has as its target MET kinase (c-MET), kinase domain of human Met (Homo sapiens, UniProt P08581). The test can be described thus: MET luminescence-based enzyme assay (Kinase-Glo). In general terms: Kinase-Glo measures the ATP left after a reaction by luminescence.

Some results are limits rather than exact numbers.

Chain of MET kinase (c-MET), kinase domain of human Met (P08581 1078-1345 limits assumed): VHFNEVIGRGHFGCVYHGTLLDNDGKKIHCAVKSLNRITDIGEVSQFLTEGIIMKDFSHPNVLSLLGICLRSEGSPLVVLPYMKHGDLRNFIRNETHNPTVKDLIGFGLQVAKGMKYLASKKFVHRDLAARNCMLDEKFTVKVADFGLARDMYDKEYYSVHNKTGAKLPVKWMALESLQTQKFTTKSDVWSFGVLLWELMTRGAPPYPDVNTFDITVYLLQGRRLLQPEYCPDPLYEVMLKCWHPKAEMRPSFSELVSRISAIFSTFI

As usually defined, the EC50 is the concentration needed to bring the measured effect to its halfway point. Low readings indicate greater potency, high ones weaker potency. The term IC50 denotes the point on the concentration scale where inhibition reaches its midpoint. A low value points to greater potency in that assay. `O=S(=O)(NC1CC1)c1ccc(-c2ccc3nnc(Cc4ccc5ncccc5c4)n3n2)cc1` [compound 1]: the EC50 in the test with GTL16 is 0.1 to 1 µM. Further, in test [1], the 50% inhibitory concentration (IC50) was less than 0.1 µM. For `O=S(=O)(c1ccc(-c2ccc3nnc(Cc4ccc5ncccc5c4)n3n2)cc1)N1CCCC1` [compound 2] the same measures were 0.1 to 1 µM and 0.1 to 1 µM.

For `CCNS(=O)(=O)c1cccc(-c2ccc3nnc(Cc4ccc5ncccc5c4)n3n2)c1` [compound 3], the EC50 in the test on GTL16 was less than 0.1 µM. The compound also came in with a half-inhibitory concentration (IC50) in test [1] of less than 0.1 µM. Regarding `NC(=O)c1ccc(F)c(-c2ccc3nnc(Cc4ccc5ncccc5c4)n3n2)c1` [compound 4], the EC50 with GTL16 lay within 1 to 10 µM. The 50% inhibitory concentration (IC50) in test [1] was in the range of 0.1 to 1 µM.

The compound `CS(=O)(=O)c1ccc(-c2ccc3nnc(Cc4ccc5ncccc5c4)n3n2)cc1` [compound 5] showed an EC50 in the test with GTL16 of 0.1 to 1 µM. The compound also had a 50% inhibitory concentration (IC50) in test [1] of 0.1 to 1 µM. Take `Fc1ccc(Oc2ccc3nnc(Cc4ccc5ncccc5c4)n3n2)cc1` [compound 6]: the EC50 in the test with GTL16 lay within 0.1 to 1 µM. The compound also had an IC50 in test [1] of 0.1 to 1 µM. As to `Fc1ccc(Oc2ccc3nnc(Cc4ccc5ncccc5c4)n3n2)cc1F` [compound 7, 6-[6-(3,4-Difluoro-phenoxy)-[1,2,4]triazolo[4,3-b]pyridazin-3-ylmethyl]-quinoline], in the test with GTL16, the half-maximal effective concentration (EC50) fell in the range of 0.1 to 1 µM. The IC50 in test [1] fell in the range of 0.1 to 1 µM. On to `c1ccc(Oc2ccc3nnc(Cc4ccc5ncccc5c4)n3n2)cc1` [compound 8], for which the concentration giving a half-maximal response (EC50) with GTL16 lay within 0.1 to 1 µM. This compound also displayed an IC50 in test [1] of 0.1 to 1 µM.

The compound `COc1cccc(Oc2ccc3nnc(Cc4ccc5ncccc5c4)n3n2)c1` [compound 9] showed an EC50 with GTL16 of 0.1 to 1 µM. For the same compound, the IC50 in test [1] fell in the range of 0.1 to 1 µM. In the case of `NS(=O)(=O)c1ccc(Oc2ccc3nnc(Cc4ccc5ncccc5c4)n3n2)cc1` [compound 10], the concentration giving a half-maximal response (EC50) in the test with GTL16 is 10 to 50 µM. In test [1], this compound returned an IC50 of 1 to 10 µM. On to `NC(=O)c1ccc(Oc2ccc3nnc(Cc4ccc5ncccc5c4)n3n2)cc1` [compound 11], for which the EC50 in the test with GTL16 fell in the range of 10 to 50 µM. In test [1], this compound showed a half-maximal inhibitory concentration (IC50) of 1 to 10 µM.

`CS(=O)(=O)c1ccc(Oc2ccc3nnc(Cc4ccc5ncccc5c4)n3n2)cc1` [compound 12]: the half-maximal effective concentration (EC50) with GTL16 was 10 to 50 µM. This compound displayed a concentration for half-maximal inhibition (IC50) in test [1] of 1 to 10 µM. In turn, `Oc1ccc(Cc2nnc3ccc(Cl)nn23)cc1` [compound 13] returned a half-maximal effective concentration (EC50) in the test with GTL16 of 10 to 50 µM. In test [1], this compound showed an IC50 of 1 to 10 µM. As to `Oc1ccc(Cc2nnc3ccc(-c4ccccc4)nn23)cc1` [compound 14], the EC50 in the test on GTL16 was in the range of 1 to 10 µM. In test [1], this compound came in with an IC50 of 0.1 to 1 µM. On to `Clc1ccc2nnc(Cc3ccc4ncccc4c3)n2n1` [compound 15, 6-(6-Chloro-[1,2,4]triazolo[4,3-b]pyridazin-3-ylmethyl)-quinoline], for which, in the test on GTL16, the EC50 lay within 1 to 10 µM. On to `c1ccc(-c2ccc3nnc(Cc4ccc5ncccc5c4)n3n2)cc1` [compound 16], for which the EC50 in the test on GTL16 lay in the range of 0.1 to 1 µM. The compound also displayed a half-maximal inhibitory concentration (IC50) in test [1] of 0.1 to 1 µM. On to `CC(C)(c1ccc2ncccc2c1)c1nnc2ccc(-c3ccccc3)nn12` [compound 18], for which, in test [1], the IC50 was 10 to 50 µM. Compound `CC(c1ccc2ncccc2c1)c1nnc2ccc(-c3cccc(F)c3)nn12` (centres unmarked) [compound 20] had a concentration giving a half-maximal response (EC50) in the test with GTL16 of less than 0.1 µM. For the same compound, the IC50 in test [1] was less than 0.1 µM. In turn, `N#Cc1cccc(-c2ccc3nnc(C(F)c4ccc5ncccc5c4)n3n2)c1` (centres unmarked) [compound 22] displayed a concentration for a half-maximal effect (EC50) with GTL16 of 1 to 10 µM. Also, the 50% inhibitory concentration (IC50) in test [1] lay within 0.1 to 1 µM. For `O=C(c1ccc(-c2ccc3nnc(Cc4ccc5ncccc5c4)n3n2)cc1)N1CCOCC1` [compound 23] the same measures were 0.1 to 1 µM and 0.1 to 1 µM. For `NC(=O)c1ccc(-c2ccc3nnc(Cc4ccc5ncccc5c4)n3n2)cc1` [compound 24] the same measures were less than 0.1 µM and less than 0.1 µM.

In turn, `NS(=O)(=O)c1cccc(-c2ccc3nnc(Cc4ccc5ncccc5c4)n3n2)c1` [compound 25] displayed a half-maximal effective concentration (EC50) in the test with GTL16 of 0.1 to 1 µM. The compound further yielded a half-maximal inhibitory concentration (IC50) in test [1] of less than 0.1 µM. For `Cc1ccc2nnc(Cc3c(F)cc4ncc(Br)cc4c3F)n2n1` [compound 28] the same measures were 0.1 to 1 µM and 1 to 10 µM. The compound `CN(C)S(=O)(=O)c1ccc(-c2ccc3nnc(Cc4ccc5ncccc5c4)n3n2)cc1` [compound 29] gave a concentration for a half-maximal effect (EC50) with GTL16 of 1 to 10 µM. The IC50 in test [1] is 0.1 to 1 µM. In the case of `Fc1cccc(-c2ccc3nnc(Cc4ccc5ncccc5c4)n3n2)c1` [compound 31], the EC50 in the test on GTL16 was less than 0.1 µM. The IC50 in test [1] was less than 0.1 µM.

`NCc1ccc(-c2ccc3nnc(Cc4ccc5ncccc5c4)n3n2)cc1` [compound 32] gave an EC50 with GTL16 of less than 0.1 µM. Also, the half-maximal inhibitory concentration (IC50) in test [1] was less than 0.1 µM. `O=C(NC1CCCC1)c1cccc(-c2ccc3nnc(Cc4ccc5ncccc5c4)n3n2)c1` [compound 33]: in the test with GTL16, the concentration for a half-maximal effect (EC50) lay in the range of 0.1 to 1 µM. In addition, in test [1], the 50% inhibitory concentration (IC50) lay within 0.1 to 1 µM. `CN(C)C(=O)c1ccc(-c2ccc3nnc(Cc4ccc5ncccc5c4)n3n2)cc1` [compound 34]: the EC50 with GTL16 is 0.1 to 1 µM. Further, the IC50 in test [1] is 0.1 to 1 µM. The compound `Cc1ccc2cc(Cc3nnc4ccc(-c5ccccc5)nn34)ccc2n1` [compound 38, 2-Methyl-6-(6-phenyl-[1,2,4]triazolo[4,3-b]pyridazin-3-ylmethyl)-quinoline] returned an IC50 in test [1] of 1 to 10 µM.

The compound `c1ccc(-c2ccc3nnc(CCc4ccc5ncccc5c4)n3n2)cc1` [compound 39] returned a 50% inhibitory concentration (IC50) in test [1] of 10 to 50 µM. `c1ccc(-c2ccc3nnc([C@H]4C[C@@H]4c4ccc5ncccc5c4)n3n2)cc1` [compound 40] registered an IC50 in test [1] of 10 to 50 µM. The compound `Clc1nc2ccc(Cc3nnc4ccc(-c5ccccc5)nn34)cc2s1` [compound 44] yielded an IC50 in test [1] of 1 to 10 µM. In the test with GTL16, `N#Cc1cccc(-c2ccc3nnc(Cc4ccc5ncccc5c4)n3n2)c1` [compound 59] registered an EC50 of less than 0.1 µM. Still for that read-out and setting: to `N#Cc1ccc(-c2ccc3nnc(Cc4ccc5ncccc5c4)n3n2)cc1` [compound 60] belongs 0.1 to 1 µM.

`Fc1ccc(-c2ccc3nnc(Cc4ccc5ncccc5c4)n3n2)cc1F` [compound 73] gave an EC50 in the test with GTL16 of less than 0.1 µM. Turning to `Cc1cc(Cc2nnc3ccc(-c4cnn(C)c4)nn23)cc2cccnc12` [compound 91], the half-inhibitory concentration (IC50) in test [1] was 1 to 10 µM. Still for that read-out and setting: the figure for `Cn1cc(-c2ccc3nnc(Cc4cc(F)c5ncccc5c4)n3n2)cn1` [compound 92] is 1 to 10 µM. As to `Fc1cccc(-c2ccc3nnc(Cc4ccc5ncsc5c4)n3n2)c1` [compound 93], the IC50 in test [1] was in the range of 1 to 10 µM. On the same count and under the same terms, the figure for `Fc1cc(F)cc(-c2ccc3nnc(Cc4ccc5ncsc5c4)n3n2)c1` [compound 97] is 0.1 to 1 µM; for `C[C@H](c1ccc2ncsc2c1)c1nnc2ccc(-c3cccc(C#N)c3)nn12` [compound 104, I-3-[3-(1-Benzothiazol-6-yl-ethyl)-[1,2,4]triazolo[4,3-b]pyridazin-6-yl]-benzonitrile] it is 0.1 to 1 µM; for `Cc1ccc2nnc(Cc3ccc4ncccc4c3)n2n1` [compound 105] it is 0.1 to 1 µM. The same measure, in the same setting: the figure for `Cc1ccc2nnc(Cc3ccc4ncc(Br)cc4c3)n2n1` [compound 106] is 0.1 to 1 µM. `Cn1cc(-c2ccc3nnc(Cc4c[nH]c5ncccc45)n3n2)cn1` [compound 108, 6-(1-Methyl-1H-pyrazol-4-yl)-3-(1H-pyrrolo[2,3-b]pyridine-3-ylmethyl)-[1,2,4]triazolo[4,3-b]pyridazine] registered an EC50 with GTL16 of less than 0.1 µM. Consider `Cc1ccc2nnc(Cc3ccc4ncc(C#N)cc4c3)n2n1` [compound 110, 6-(6-Methyl-[1,2,4]triazolo[4,3-b]pyridazin-3-ylmethyl)-quinoline-3-carbonitrile], for which the IC50 in test [1] is 1 to 10 µM. Same read-out and setting: to `CCc1ccc2nnc(Cc3c(F)cc4ncc(Br)cc4c3F)n2n1` [compound 115] belongs 0.1 to 1 µM; to `CCc1cnc2ccc(Cc3nnc4ccc(C)nn34)cc2c1` [compound 116, 3-Ethyl-6-(6-methyl-[1,2,4]triazolo[4,3-b]pyridazin-3-ylmethyl)-quinoline], less than 0.1 µM; to `Cc1ccc2nnc(C(C)c3ccc4ncc(Br)cc4c3)n2n1` (centres unmarked) [compound 119, 3-Bromo-6-[1-(6-methyl-[1,2,4]triazolo[4,3-b]pyridazin-3-yl)-ethyl]-quinoline], less than 0.1 µM.

`CCc1ccc2nnc(Cc3ccc4ncc(Br)cc4c3F)n2n1` [compound 121] came in with an IC50 in test [1] of 0.1 to 1 µM. Compound `Cc1ccc2nnc(Cc3ccc4ncc(-n5cccn5)cc4c3)n2n1` [compound 127] returned a concentration for half-maximal inhibition (IC50) in test [1] of 0.1 to 1 µM. On the same count and under the same terms, the figure for `Cc1ccc2nnc(Cc3ccc4ncc(-c5c[nH]nc5C)cc4c3)n2n1` [compound 150] is 0.1 to 1 µM; for `Cc1ccc2nnc(Cn3ccc4ncc(-c5cnn(C)c5)cc43)n2n1` [compound 178] it is 1 to 10 µM. The same measure, in the same setting: to `Cc1ccc2nnc(Cc3ccc4ncc(-c5cnn(C6CN(C)C6)c5)cc4c3)n2n1` [compound 183] belongs less than 0.1 µM; to `CCc1ccc2nnc(Cc3ccc4ncc(-c5cnn(C6CNC6)c5)cc4c3F)n2n1` [compound 184], less than 0.1 µM; to `CCc1ccc2nnc(Cc3c(F)cc4ncc(-c5cnn(C6CNC6)c5)cc4c3F)n2n1` [compound 185], less than 0.1 µM.

With `CCc1ccc2nnc(Cc3ccc4ncc(-c5cnn(C6CN(CC)C6)c5)cc4c3F)n2n1` [compound 186], in test [1], the IC50 was less than 0.1 µM. `CCc1ccc2nnc(Cc3c(F)cc4ncc(-c5cnn(C6CN(CC)C6)c5)cc4c3F)n2n1` [compound 187] returned an IC50 in test [1] of less than 0.1 µM. As for `CCN1CC(n2cc(-c3cnc4cc(F)c(Cc5nnc6ccc(C)nn56)c(F)c4c3)cn2)C1` [compound 188], the 50% inhibitory concentration (IC50) in test [1] was less than 0.1 µM. On the same count and under the same terms, to `CCc1ccc2nnc(Cc3ccc4ncc(-c5cnn(C6CNC6)c5)cc4c3)n2n1` [compound 189] belongs less than 0.1 µM. On the same count and under the same terms, the figure for `CCN1CC(n2cc(-c3cnc4ccc(C(C)c5nnc6ccc(C)nn56)cc4c3)cn2)C1` (centres unmarked) [compound 190] is less than 0.1 µM. In turn, `Cc1ccc2nnc(C(C)c3ccc4ncc(-c5cnn(C)c5)cc4c3)n2n1` (centres unmarked) [compound 191] came in with an IC50 in test [1] of less than 0.1 µM.
